Counter-ions that a name gives are not always drawn.
Assays:
[1] = Evaluation of a conversion rate to 2-acetylnaphtho[2,3-b]furan-4,9-dione in pH 7.4 phosphate buffer solution; type: physicochemical
Method: For test compounds, the decrease rate of the test compounds and the conversion rate thereof to 2-acetylnaphtho[2,3-b]furan-4,9-dione in human plasma, CD1 mouse plasma, and pH 7.4 phosphate buffer solution were measured.
Test compounds were incubated at the concentration of 1 umol/L in human plasma (cat. no. 12250210, COSMO BIO), CD1 mouse plasma (cat. no. AP3054, KAC), and phosphate buffer solution at 37° C., and removed at predetermined times (0, 5, 10, 30, 60, and 120 minutes). After protein-removing treatment was performed, they are analyzed with LC-MS. It should be noted that the protein-removing treatment used acetonitrile containing: 10% volume of 1 mol/L hydrochloric acid; 1% volume of 46% citric acid; and phenytoin as an internal standard.
The measurement condition of LC-MS is as described below. LC-MS condition column: Kinetex 2.6 u PFP 100 A 50×2.1 mm Column temperature: 40° C.
Mobile phase: A: 0.1% formic acid-containing water
• B: 0.1% formic acid-containing acetonitrile A/B(min): 95/5(0)→5/95(3)→5/95(4)→95/5(4.1)→95/5(6) Flow rate: 0.4 mL/min Detection: ESI (positive mode) Injection volume: 10 uL
Measurement values are calculated from the peak area ratio in LC-MS between an internal standard material, phenytoin and an active form, 2-acetylnaphtho[2,3-b]furan-4,9-dione, and are expressed in %.
In the same way as Example 6, the incubation time was set as 120 minutes later, and the conversion rate of each of various test compounds to 2-acetylnaphtho[2,3-b]furan-4,9-dione in human plasma, CD1 mouse plasma, and pH 7.4 phosphate buffer solution was measured. A series of the present compounds were confirmed to be converted to 2-acetylnaphtho[2,3-b]furan-4,9-dione in pH 7.4 phosphate buffer solution in addition to human plasma and CD1 mouse plasma. Therefore, a series of the test compounds of the present invention were confirmed to be converted to the activated form via a route other than an enzymatic conversion.

Solubility test = settings: for solubility at 24 hours: glycine buffer solution, pH 2, aqueous buffer, thermodynamic from solid; for solubility (in words): pH 2.0 buffer solution
Method: A water-soluble prodrug was added into 50 mmol/L glycine buffer solution (pH 2.0). After shaking at room temperature for 24 hours, the mixture was filtered through a membrane filter, and then the filtrate was measured with HPLC.
The measurement condition of HPLC is as described below. HPLC condition column: Acquity UPLC BEH C18, 1.7 um, 50×2.1 mm
Mobile phase: A: 0.1% trifluoroacetic acid-containing water

[2] = Phosphate buffer solution (pH 7.4), 1 umol/L, 37° C., incubation time 120 min
[3] = Phosphate buffer solution (pH 7.4), 1 umol/L, 37° C., incubation time 120 min, monosulfate salt monohydrate
[4] = Phosphate buffer solution (pH 7.4), 1 umol/L, 37° C., incubation time 120 min, dimethanesulfonate salt monohydrate
[5] = Phosphate buffer solution (pH 7.4), 1 umol/L, 37° C., incubation time 120 min, monohydrate

CC(=O)c1cc2c(OC(=O)NCCNCC(=O)O)c3ccccc3c(OC(=O)NCCNCC(=O)O)c2o1 [Example 93, 2,2′-((((((2-acetylnaphtho[2,3-b]furan-4,9-diyl)bis(oxy))bis(carbonyl))bis(azanediyl))bis(ethane-2,1-diyl))bis(azanediyl))diacetic acid monohydrochloride dihydrate]
% Measurement value (conversion rate to 2-acetylnaphtho[2,3-b]furan-4,9-dione) ([1]; Phosphate buffer solution (pH 7.4), 1 umol/L, 37° C., incubation time 120 min, monohydrochloride dihydrate): 72%

CC(=O)c1cc2c(OC(=O)NCCCN)c3ccccc3c(O)c2o1.Cl [Example 15, 2-Acetyl-9-hydroxynaphtho[2,3-b]furan-4-yl (3-aminopropyl)carbamate hydrochloride]
% Measurement value (conversion rate to 2-acetylnaphtho[2,3-b]furan-4,9-dione) [1, 2]: 100%

CC(=O)c1cc2c(OC(=O)NCCNCC(F)F)c3ccccc3c(OC(=O)NCCNCC(F)F)c2o1.Cl.Cl [Example 44]
% Measurement value (conversion rate to 2-acetylnaphtho[2,3-b]furan-4,9-dione) ([1]; pH 7.4): 48%

CC(=O)c1cc2c(OC(=O)NCCNCC(=O)O)c3ccccc3c(OC(=O)NCCNCC(=O)O)c2o1 [Example 97, 2,2′-((((((2-acetylnaphtho[2,3-b]furan-4,9-diyl)bis(oxy))bis(carbonyl))bis-(azanediyl))bis(ethane-2,1-diyl))bis(azanediyl))diacetic acid monosulfate salt monohydrate]
% Measurement value (conversion rate to 2-acetylnaphtho[2,3-b]furan-4,9-dione) [1, 3]: 61%

CC(=O)c1cc2c(OC(=O)NCCCN)c3ccccc3c(OC(=O)NCCCN)c2o1 [Example 1, 2-Acetylnaphtho[2,3-b]furan-4,9-diyl bis((3-aminopropyl)carbamate)dihydrochloride]
% Measurement value (conversion rate to 2-acetylnaphtho[2,3-b]furan-4,9-dione) [1, 2]: 79%

COC(=O)[C@@H](N)CCNC(=O)Oc1c2ccccc2c(OC(=O)NCC[C@H](N)C(=O)OC)c2oc(C(C)=O)cc12 [Example 106, Dimethyl 4,4′-((((2-acetylnaphtho[2,3-b]furan-4,9-diyl)bis(oxy))bis(carbonyl))bis(azanediyl))(2S,2′S)-bis(2-aminobutanoate)dibenzenesulfonate salt]
% Measurement value (conversion rate to 2-acetylnaphtho[2,3-b]furan-4,9-dione) [1, 2]: 55%
Solubility in pH 2.0 buffer solution (Solubility test; 50 mmol/L glycine buffer solution (pH 2.0), room temperature, 24 hours shaking): >5.0 mg/mL

CC(=O)c1cc2c(OC(=O)NCCNCCC(=O)O)c3ccccc3c(OC(=O)NCCNCCC(=O)O)c2o1 [Example 99, 3,3′-((((((2-acetylnaphtho[2,3-b]furan-4,9-diyl)bis(oxy))bis(carbonyl))bis(azanediyl))bis(ethane-2,1-diyl))bis(azanediyl))dipropionic acid dimethanesulfonate salt monohydrate]
% Measurement value (conversion rate to 2-acetylnaphtho[2,3-b]furan-4,9-dione) [1, 4]: 60%

CC(=O)c1cc2c(OC(=O)NCCN)c3ccccc3c(OC(=O)NCCN)c2o1 [Example 2, 2-Acetylnaphtho[2,3-b]furan-4,9-diyl bis((2-aminoethyl)carbamate)dihydrochloride]
% Measurement value (conversion rate to 2-acetylnaphtho[2,3-b]furan-4,9-dione) [1, 2]: 59%

CCCCCCCC(=O)Oc1c2ccccc2c(OC(=O)CCCCCCC)c2oc(C(C)=O)cc12 [2-acetylnaphtho[2,3-b]furan-4,9-diyl dioctanoate, reference compound]
solubility at 24 hours (Solubility test): < 0.1 µg/mL
solubility (in words) (Solubility test): very low solubility

CC(=O)c1cc2c(OC(=O)C(C)(C)C)c3ccccc3c(OC(=O)C(C)(C)C)c2o1 [2-acetylnaphtho[2,3-b]furan-4,9-diyl bis(2,2-dimethylpropanoate), reference compound]
solubility at 24 hours (Solubility test): < 0.1 µg/mL
solubility (in words) (Solubility test): very low solubility

COC(=O)[C@@H](N)CCNC(=O)Oc1c2ccccc2c(OC(=O)NCC[C@H](N)C(=O)OC)c2oc(C(C)=O)cc12 [Example 107, Dimethyl 4,4′-((((2-acetylnaphtho[2,3-b]furan-4,9-diyl)bis(oxy))bis(carbonyl))bis(azanediyl))(2S,2′S)-bis(2-aminobutanoate) monosulfate salt monohydrate]
% Measurement value (conversion rate to 2-acetylnaphtho[2,3-b]furan-4,9-dione) [1, 3]: 50%

CC(=O)c1cc2c(OC(=O)NCCNCCC(=O)O)c3ccccc3c(OC(=O)NCCNCCC(=O)O)c2o1 [Example 100, 3,3′-((((((2-acetylnaphtho[2,3-b]furan-4,9-diyl)bis(oxy))bis(carbonyl))bis(azanediyl))bis(ethane-2,1-diyl))bis(azanediyl))dipropionic acid ditoluenesulfonate salt monohydrate]
% Measurement value (conversion rate to 2-acetylnaphtho[2,3-b]furan-4,9-dione) [1, 5]: 76%

CC(=O)c1cc2c(OC(=O)NCCNCC(=O)O)c3ccccc3c(OC(=O)NCCNCC(=O)O)c2o1 [Example 94, 2,2′-((((((2-acetylnaphtho[2,3-b]furan-4,9-diyl)bis(oxy))bis(carbonyl))bis-(azanediyl))bis(ethane-2,1-diyl))bis(azanediyl))diacetic acid dimethanesulfonate salt monohydrate]
% Measurement value (conversion rate to 2-acetylnaphtho[2,3-b]furan-4,9-dione) [1, 4]: 53%

CC(=O)c1cc2c(O)c3ccccc3c(OC(=O)NCCCN)c2o1.Cl [Example 20, 2-Acetyl-4-hydroxynaphtho[2,3-b]furan-9-yl (3-aminopropyl)carbamate hydrochloride]
% Measurement value (conversion rate to 2-acetylnaphtho[2,3-b]furan-4,9-dione) [1, 2]: 57%

CC(=O)c1cc2c(OC(=O)NCCNCCC(=O)O)c3ccccc3c(OC(=O)NCCNCCC(=O)O)c2o1 [Example 103, 3,3′-((((((2-acetylnaphtho[2,3-b]furan-4,9-diyl)bis(oxy))bis(carbonyl))bis(azanediyl))bis(ethane-2,1-diyl))bis(azanediyl))dipropionic acid 1/3 trifluoroacetate salt monohydrate]
% Measurement value (conversion rate to 2-acetylnaphtho[2,3-b]furan-4,9-dione) ([1]; Phosphate buffer solution (pH 7.4), 1 umol/L, 37° C., incubation time 120 min, trifluoroacetate salt monohydrate): 53%

CN[C@@H](CCNC(=O)Oc1c2ccccc2c(OC(=O)NCC[C@@H](NC)C(=O)O)c2cc(C(C)=O)oc12)C(=O)O [Example 3, (S)-4-((((2-Acetyl-4-((((R)-3-carboxy-3-(methylamino)propyl)carbamoyl)oxy)naphtho[2,3-b]furan-9-yl)oxy)carbonyl)amino)-2-(methylamino)butanoic acid dihydrochloride]
% Measurement value (conversion rate to 2-acetylnaphtho[2,3-b]furan-4,9-dione) [1, 2]: 40%

CC(=O)c1cc2c(OC(=O)NCCNCCC(=O)O)c3ccccc3c(OC(=O)NCCNCCC(=O)O)c2o1 [Example 102, 3,3′-((((((2-acetylnaphtho[2,3-b]furan-4,9-diyl)bis(oxy))bis(carbonyl))bis-(azanediyl))bis(ethane-2,1-diyl))bis(azanediyl))dipropionic acid monosulfate salt monohydrate]
% Measurement value (conversion rate to 2-acetylnaphtho[2,3-b]furan-4,9-dione) [1, 3]: 59%

CC(=O)c1cc2c(OC(=O)NCCNCC(=O)O)c3ccccc3c(OC(=O)NCCNCC(=O)O)c2o1 [Example 95, 2,2′-((((((2-acetylnaphtho[2,3-b]furan-4,9-diyl)bis(oxy))bis(carbonyl))bis(azanediyl))bis(ethane-2,1-diyl))bis(azanediyl))diacetic acid ditoluenesulfonate salt monohydrate]
% Measurement value (conversion rate to 2-acetylnaphtho[2,3-b]furan-4,9-dione) [1, 5]: 54%

CC(=O)c1cc2c(OC(=O)NCCNCCC(=O)O)c3ccccc3c(O)c2o1 [Example 17, 3-((2-((((2-Acetyl-9-hydroxynaphtho[2,3-b]furan-4-yl)oxy)carbonyl)amino)ethyl)amino)prop ionic acid hydrochloride]
% Measurement value (conversion rate to 2-acetylnaphtho[2,3-b]furan-4,9-dione) [1, 2]: 80%

CC(=O)c1cc2c(OC(=O)NCCNCCC(=O)O)c3ccccc3c(OC(=O)NCCNCCC(=O)O)c2o1 [Example 101, 3,3′-((((((2-acetylnaphtho[2,3-b]furan-4,9-diyl)bis(oxy))bis(carbonyl))bis(azanediyl))bis(ethane-2,1-diyl))bis(azanediyl))dipropionic acid dibenzenesulfonate salt]
% Measurement value (conversion rate to 2-acetylnaphtho[2,3-b]furan-4,9-dione) ([1]; Phosphate buffer solution (pH 7.4), 1 umol/L, 37° C., incubation time 120 min, dibenzenesulfonate salt): 56%

Source: patent US10800752B2, “Substituted naphtho[2,3-b]furans as water-soluble prodrugs for preventing and/or treating cancer” (BOSTON BIOMEDICAL, INC., priority 2015, dated 2020)
